Where “and” joins values, the source holds several entries; their conditions need not be identical. Identical values can stand only once. After the bases stand the sugars from the 5' end (letter, count) and the backbone: PS all phosphorothioate, else s phosphorothioate and o phosphodiester by linkage. Methylation of C is not given here. e = 2'-O-(2-methoxyethyl) (MOE); k = constrained ethyl (cEt); d = 2'-deoxy (DNA)
These sequences were tested against IRF4. Conditions: ASO, MM.1R, 0.0625 µM.

| Sequence | target mRNA inhibition [%] |
| --- | --- |
| GAGTGAGATGCGGAGG (sugars k3 d10 k3, PS) | 6 |

Same assay, conditions: ASO, MM.1R, 0.074 µM

| Sequence | target mRNA inhibition [%] |
| --- | --- |
| GAAGTTTACACTGGAT (sugars kkdddddddddekeke, PS) | 14 |
| GCAGTGATGTCAGGTT (sugars kkdddddddddkdkdk, PS) | 15 |
| GCATTTTATCATCCGA (sugars e1 k2 d9 k2 e2, PS) | 18 |

Same assay, conditions: ASO, MM.1R, 0.222 µM

| Sequence | target mRNA inhibition [%] |
| --- | --- |
| GAAGTTTACACTGGAT (sugars kkdddddddddekeke, PS) | 26 |
| GCAGTGATGTCAGGTT (sugars kkdddddddddkdkdk, PS) | 32 |
| GCATTTTATCATCCGA (sugars e1 k2 d9 k2 e2, PS) | 34 |

Same assay, conditions: ASO, MM.1R, 0.25 µM

| Sequence | target mRNA inhibition [%] |
| --- | --- |
| GAGTGAGATGCGGAGG (sugars k3 d10 k3, PS) | 0 |

Same assay, conditions: ASO, MM.1R, 0.666 µM

| Sequence | target mRNA inhibition [%] |
| --- | --- |
| GAAGTTTACACTGGAT (sugars kkdddddddddekeke, PS) | 50 |
| GCAGTGATGTCAGGTT (sugars kkdddddddddkdkdk, PS) | 58 |
| GCATTTTATCATCCGA (sugars e1 k2 d9 k2 e2, PS) | 57 |

Same assay, conditions: ASO, MM.1R, 1 µM

| Sequence | target mRNA inhibition [%] |
| --- | --- |
| GAAGCATTTTATCATC (sugars e1 k2 d9 k2 e2, PS) | 1 |
| GAAGCATTTTATCATC (sugars k2 d9 e3 k2, PS) | 9 |
| GAAGGCCTGAGTTACC (sugars k3 d10 k3, PS) | 29 |
| GAAGTTTACACTGGAT (sugars kkdddddddddekeke, PS) | 58 |
| GAAGTTTACACTGGAT (sugars kkkdddddddddkeke, PS) | 49 |
| GAATCTTGGCAGGGAG (sugars k3 d10 k3, PS) | 0 |
| GAATTCCAAACCTTAA (sugars k3 d10 k3, PS) | 4 |
| GACACTTTTAGAGAGG (sugars k2 d9 e3 k2, PS) | 25 |
| GACACTTTTAGAGAGG (sugars kddddddddddkekek, PS) | 23 |
| GACACTTTTAGAGAGG (sugars kdddddddddkekeke, PS) | 9 |
| GACACTTTTAGAGAGG (sugars kkddddddddddkeke, PS) | 9 |
| GACACTTTTAGAGAGG (sugars kkdddddddddkdkdk, PS) | 14 |
| GACAGTGACTTGCATC (sugars kkdddddddddkekek, PS) | 5 |
| GACTTATTTGTGGCTC (sugars k3 d10 k3, PS) | 20 |
| GAGAGACGAAAACAGC (sugars k3 d10 k3, PS) | 5 |
| GAGCCAGAGCAGTAAA (sugars k3 d10 k3, PS) | -2 |
| GAGGAAGTCCCCTTCC (sugars k3 d10 k3, PS) | 4 |
| GATCCTGAGAGTAAAC (sugars k3 d10 k3, PS) | 6 |
| GATGTGATAGCTGAGC (sugars kkdddddddddkdkdk, PS) | 34 |
| GATTATATACTGGTTG (sugars kkddddddddddkeke, PS) | 45 |
| GCAGTGATGTCAGGTT (sugars k3 d10 k3, PS) | 39 |
| GCAGTGATGTCAGGTT (sugars kkdddddddddkdkdk, PS) | 53 |
| GCATTTTATCATCCGA (sugars e1 k2 d9 k2 e2, PS) | 61 |
| GCATTTTATCATCCGA (sugars k2 d9 e3 k2, PS) | 38 |
| GCATTTTATCATCCGA (sugars kkddddddddddkeke, PS) | 39 |
| GCATTTTATCATCCGA (sugars kkdddddddddekeke, PS) | 44 |
| GCATTTTATCATCCGA (sugars kkdddddddddkdkdk, PS) | 16 |
| GCCGATCATCAACTTC (sugars k3 d10 k3, PS) | 26 |
| GCCTTCAGCGGTTTCC (sugars k3 d10 k3, PS) | 4 |

Same assay, conditions: ASO, MM.1R, 2 µM

| Sequence | target mRNA inhibition [%] |
| --- | --- |
| GAAGTTTACACTGGAT (sugars kkdddddddddekeke, PS) | 59 |
| GCAGTGATGTCAGGTT (sugars kkdddddddddkdkdk, PS) | 79 |
| GCATTTTATCATCCGA (sugars e1 k2 d9 k2 e2, PS) | 83 |

Same assay, conditions: ASO, MM.1R, 4 µM

| Sequence | target mRNA inhibition [%] |
| --- | --- |
| GAGTGAGATGCGGAGG (sugars k3 d10 k3, PS) | 67 |

Same assay, conditions: ASO, SK-MEL-28, 0.185 µM

| Sequence | target mRNA inhibition |
| --- | --- |
| GACTCCATGAGGTTTT (sugars k3 d10 k3, PS) | 14% and 10% and 1% |
| GCATTTTCCAGAAAAT (sugars k3 d10 k3, PS) | 13% |

Same assay, conditions: ASO, SK-MEL-28, 4 µM

| Sequence | target mRNA inhibition [%] |
| --- | --- |
| GAACCTGCTGGGCTGG (sugars k3 d10 k3, PS) | 36 |
| GAACTAATGTCCCCAG (sugars k3 d10 k3, PS) | 61 |
| GAAGAGTTGGCGGTGG (sugars k3 d10 k3, PS) | 15 |
| GAAGCATAGAACAGAT (sugars k3 d10 k3, PS) | 51 |
| GAAGGGAACAGATAGT (sugars k3 d10 k3, PS) | 17 |
| GAAGTTTACTAACTGG (sugars k3 d10 k3, PS) | 57 |
| GAATTTACAGCATCTA (sugars k3 d10 k3, PS) | 76 |
| GACAAGAACTGCTGTG (sugars k3 d10 k3, PS) | 15 |
| GACAATGTTGTATGAA (sugars k3 d10 k3, PS) | 72 |
| GACATTGGTACGGGAT (sugars k3 d10 k3, PS) | 36 |
| GACCAACTGGAAAACC (sugars k3 d10 k3, PS) | 56 |
| GACCAATTTATGCCAT (sugars k3 d10 k3, PS) | 38 |
| GACCCACACCAGGAAA (sugars k3 d10 k3, PS) | 2 |
| GACCTAACTAAATGTC (sugars k3 d10 k3, PS) | -18 |
| GACGGAGGCGGCAGAC (sugars k3 d10 k3, PS) | -43 |
| GACTAACAGGGAGACT (sugars k3 d10 k3, PS) | -9 |
| GACTCCATGAGGTTTT (sugars k3 d10 k3, PS) | 70 |
| GACTCGGAGCTGAGGG (sugars k3 d10 k3, PS) | 23 |
| GACTTAAGCTAAACTC (sugars k3 d10 k3, PS) | 58 |
| GAGAAAACCCCCCTCT (sugars k3 d10 k3, PS) | 17 |
| GAGAAACGAGCCAGTG (sugars k3 d10 k3, PS) | 39 |
| GAGAAGCATATTCCAA (sugars k3 d10 k3, PS) | 57 |
| GAGACCTACAAAATGC (sugars k3 d10 k3, PS) | 11 |
| GAGCAAACCCTGCACT (sugars k3 d10 k3, PS) | -16 |

| Sequence | target mRNA inhibition [%] |
| --- | --- |
| GAGCAAAGCAAGTGTC (sugars k3 d10 k3, PS) | 42 |
| GAGCAATGAACGGAAG (sugars k3 d10 k3, PS) | 72 |
| GAGCACTGCATGAAAG (sugars k3 d10 k3, PS) | 51 |
| GAGCAGTAAACGCAAG (sugars k3 d10 k3, PS) | 54 |
| GAGCATCAACAAAGCC (sugars k3 d10 k3, PS) | 58 |
| GAGCATCCGCTTGGAG (sugars k3 d10 k3, PS) | 31 |
| GAGCTGTGATGAGCTT (sugars k4 d8 k4, PS) | 5 |
| GAGGAAGCCGTTCCTT (sugars k3 d10 k3, PS) | 51 |
| GAGGAATGGCGGATAG (sugars k3 d10 k3, PS) | 31 |
| GAGGAGGAGGACTTAT (sugars k3 d10 k3, PS) | 51 |
| GAGGGTCAAAAAGATG (sugars k3 d10 k3, PS) | 33 |
| GAGTCACCTGGAATCT (sugars k3 d10 k3, PS) | 43 |
| GAGTCCCCGGCTCCTC (sugars k3 d10 k3, PS) | 25 |
| GAGTCTTTGAGGCTGC (sugars k3 d10 k3, PS) | 34 |
| GATAAAGGCTGAACTG (sugars k3 d10 k3, PS) | 67 |
| GATAATATACCCCAAA (sugars k3 d10 k3, PS) | 33 |
| GATCATCAACTTCTTA (sugars k3 d10 k3, PS) | 47 |
| GATGTATACATCACTG (sugars k3 d10 k3, PS) | 70 |
| GATTCATTTCCTTCAC (sugars k3 d10 k3, PS) | 49 |
| GCAAAACCCCTCAAGC (sugars k3 d10 k3, PS) | 20 |
| GCAATTGAAATGGAGC (sugars k3 d10 k3, PS) | 24 |
| GCACAAGCATAAAAGG (sugars k3 d10 k3, PS) | 16 |
| GCACAATTCTCTGAGA (sugars k3 d10 k3, PS) | 34 |
| GCACAGAACACCTGAT (sugars k3 d10 k3, PS) | 56 |

| Sequence | target mRNA inhibition [%] |
| --- | --- |
| GCACAGACATACCTAC (sugars k3 d10 k3, PS) | 46 |
| GCACTGCATGAAAGTG (sugars k3 d10 k3, PS) | 40 |
| GCACTGGCATCGAGAC (sugars k3 d10 k3, PS) | 57 |
| GCAGAGCAATTTACAT (sugars k3 d10 k3, PS) | 66 |
| GCAGAGGGACCCACAC (sugars k3 d10 k3, PS) | 21 |
| GCAGGTTTCATTTCAT (sugars k3 d10 k3, PS) | 44 |
| GCATAAAAGGTTCCTG (sugars k3 d10 k3, PS) | 26 |
| GCATAGCATTATCTAC (sugars k3 d10 k3, PS) | 51 |
| GCATCTAAGGCAAGCT (sugars k3 d10 k3, PS) | 34 |
| GCATTTTCCAGAAAAT (sugars k3 d10 k3, PS) | 64 |
| GCCAAGACCAGCTCTT (sugars k3 d10 k3, PS) | 30 |
| GCCAAGAGGTGCGAGT (sugars k3 d10 k3, PS) | 35 |
| GCCAAGTAATTTTAAG (sugars k3 d10 k3, PS) | 35 |
| GCCAATTCCACTTTAT (sugars k3 d10 k3, PS) | 64 |
| GCCACAACTCTCGCCT (sugars k3 d10 k3, PS) | 25 |
| GCCATTCGAGGTGATT (sugars k3 d10 k3, PS) | 56 |
| GCCATTGTCCTCTGGG (sugars k3 d10 k3, PS) | 25 |
| GCCCACATAATCCAGT (sugars k3 d10 k3, PS) | 22 |
| GCCCGGAGGAAGGGCG (sugars k3 d10 k3, PS) | -6 |
| GCCGCTGTCGATCTGG (sugars k3 d10 k3, PS) | 24 |
| GCCTTAATGGTGATTT (sugars k3 d10 k3, PS) | 26 |
| GCGAAGGCTCCTACCC (sugars k3 d10 k3, PS) | -15 |
| GCGACTAACTCTCCTG (sugars k3 d10 k3, PS) | 70 |

Same assay, conditions: ASO, SK-MEL-28, 5 µM

| Sequence | target mRNA inhibition |
| --- | --- |
| GACTCCATGAGGTTTT (sugars k3 d10 k3, PS) | 58% and 55% and 77% |
| GCATTTTCCAGAAAAT (sugars k3 d10 k3, PS) | 74% |

Same assay, conditions: ASO, SK-MEL-28, 15 µM

| Sequence | target mRNA inhibition |
| --- | --- |
| GACTCCATGAGGTTTT (sugars k3 d10 k3, PS) | 76% and 78% and 87% |
| GCATTTTCCAGAAAAT (sugars k3 d10 k3, PS) | 89% |

From the OligoGym collection
